Data taken from ChEMBL document CHEMBL1141428, “Polyisoprenylated benzoylphloroglucinol derivatives from Hypericum sampsonii” (2007).
≈ marks a conversion by molar mass, not a printed value.

System: Staphylococcus aureus
Test: Antibacterial activity against multidrug-resistant Staphylococcus aureus 1199B overexpressing NorA after 18 hrs
Type: functional

| Compound | MIC [µM] |
| --- | --- |
| CCn1cc(C(=O)O)c(=O)c2cc(F)c(N3CCNCC3)cc21 [NORFLOXACIN] | 100 (≈ 31.9 µg/mL) |
| CC(C)=CC[C@H]1C[C@]2(CC=C(C)C)C(=O)C(C(=O)c3ccccc3)=C(O)[C@](CC=C(C)C)(C2=O)C1(C)C | 7.3 (≈ 3.67 µg/mL) |
